A word on the IC50: it is the midpoint of a concentration-inhibition curve. Usually melting point stands for the temperature of the solid-liquid transition.

The target in data set [1] is T1, hFSH-R (Homo sapiens, UniProt P23945).
T1 construct: expressed in transfected cells; host or cells: CHO-3D2 cells (CHO-K1 parental line)
T1 sequence (P23945 18-695): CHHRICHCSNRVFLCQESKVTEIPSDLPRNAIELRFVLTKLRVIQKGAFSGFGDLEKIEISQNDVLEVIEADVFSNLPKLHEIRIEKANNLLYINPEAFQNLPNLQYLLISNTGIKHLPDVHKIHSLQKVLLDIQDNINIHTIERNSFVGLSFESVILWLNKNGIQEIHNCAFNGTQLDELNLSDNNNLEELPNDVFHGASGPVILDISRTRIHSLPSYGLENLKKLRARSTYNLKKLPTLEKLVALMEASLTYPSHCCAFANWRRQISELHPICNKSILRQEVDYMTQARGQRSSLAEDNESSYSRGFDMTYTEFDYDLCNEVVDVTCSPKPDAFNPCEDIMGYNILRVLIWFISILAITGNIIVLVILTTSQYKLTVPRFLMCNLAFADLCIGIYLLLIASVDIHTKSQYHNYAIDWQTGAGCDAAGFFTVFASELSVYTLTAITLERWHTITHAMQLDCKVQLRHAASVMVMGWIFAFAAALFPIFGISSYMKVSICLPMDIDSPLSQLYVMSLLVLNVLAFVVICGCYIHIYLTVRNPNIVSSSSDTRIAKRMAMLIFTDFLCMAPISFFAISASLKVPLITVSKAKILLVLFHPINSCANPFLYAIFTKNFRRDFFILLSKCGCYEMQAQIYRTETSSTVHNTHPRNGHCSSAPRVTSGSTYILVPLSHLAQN
The data set can be described thus: cAMP accumulation (RIA) in CHO-3D2 cells (hFSH-R), hFSH-induced. It counts as cell-based. The settings on record: inhibition of cAMP accumulation induced by hFSH at EC20, CHO-3D2 cells. The protocol: IN VITRO BIO-ASSAY OF AGONISTS AND ANTAGONISTS TO THE FSH RECEPTOR. SELECTIVITY AND DEPENDENCY OF AGONISTS AND ANTAGONISTS TO THE FSH RECEPTOR
Compound Vehicle: Stock compounds were solubilized in 100% DMSO (Sigma-Aldrich Chemical Co., St. Louis, Mo.) at a concentration of 30 mM. The compounds subsequently were diluted in sterile assay medium consisting of Opti-MEM® I (Invitrogen/Life Technologies, Carlsbad, Calif.) with 0.1% (w/v) BSA (Sigma-Aldrich) prior to use in the bio-assay. The final concentration of DMSO in the assay was 0.1%.
Plated cells are then incubated at 37° C. in a humidified 5% CO2/95% air atmosphere.
Assay: On the day of the assay, cells were washed three times with 100 μl/well of assay medium consisting of Opti-MEM® I (Invitrogen/Life Technologies) with 0.1% (w/v) BSA (Sigma-Aldrich). Medium was removed and 100 μl of assay medium was added to each well. Plates were incubated for an additional 30 minutes at 37° C. […] Reactions were terminated by the addition of 50 μl of 0.2N hydrochloric acid to each well and cAMP-accumulation was measured by radioimmunoassay (RIA) using a commercially available kit (Amersham Biosciences, Piscataway, N.J.).
All test compounds were evaluated in a dose-response paradigm ranging from 0.01 to 30 μM. Controls and test compounds were evaluated in quadruplicate in a 96-well format.
Along with the test compounds, FSH was run also as a postive control in the agonist mode using concentrations ranging from 0.1-1000 ng/ml.
Data were analyzed by one-way analysis of variance and significant differences between treatments and control determined by Least Significant Difference test.
Test compounds were compared to the effect of purified human FSH.
In general terms: Cyclic AMP is a second messenger, typically raised through Gs and lowered through Gi signalling.

Data set [2] addresses T2, human FSH receptor (Homo sapiens, UniProt P23945).
T2 construct: host or cells: CHO-K1 (CHO FSH-R 6CRE-Luc, 1D7 cells)
T2 sequence (P23945 18-695): T1 sequence (P23945 18-695)
Briefly: FSH receptor-dependent CRE-luciferase reporter gene assay (CHO FSH-R 6CRE-Luc cells). It counts as cell-based. The settings on record: dose-response format in presence of EC50 of purified human FSH; * n=3, ** n=2 averages. The text has this: FOLLICLE-STIMULATING HORMONE RECEPTOR-DEPENDENT CRE-LUCIFERASE REPORTER GENE ASSAY FOR THE IDENTIFICATION OF FOLLICLE-STIMULATING HORMONE (FSH) ANTAGONISTS
A Chinese hamster ovarian cell line that stably produces the human FSH receptor and a luciferase reporter gene regulated by cAMP response elements was used to identify and determine the relative potencies of human FSH receptor antagonists. See for example, Kelton, C. A., et al. Mol. Cell. Endocrinol. 89:141-151 (1992), Tilly, J. L., et al. Endocrinology 131:799-806(1992), and George, S. E., et al. J. Biomol. Screening 2:235-240 (1997).
Compound Vehicle: Stock compounds were solubilized in an appropriate vehicle, e.g., phosphate buffered saline (PBS) or dimethyl sulfoxide (DMSO), at 30 mM. The compounds subsequently were diluted in DMSO to working dilutions of 1 and 20 or 30 mM for 2-dose testing format and 1 μM-10 mM for dose-response format. The DMSO dilutions were diluted 500-fold in sterile growth medium [D-MEM/F-12 (GIBCO/BRL; Grand Island, N.Y.) containing 15 mM HEPES, 2 mM l-glutamine, pyridoxine hydrochloride, phenol red and 5% FETALCLONE® II (HyClone Laboratories, Inc; Logan, Utah), 0.2% DMSO, 100 units penicillin G/ml, and 100 μg streptomycin sulfate/ml (GIBCO/BRL)]. The concentration of the vehicle in each of the compound dilutions was the same.
Positive Controls: Purified human FSH (>98%) was purchased from Cortex Biochem, Inc. (San Leandro, Calif.) and 3-[(2S*,5R*)-5-{[2-(1H-Indol-3-yl)-ethylcarbamoyl]-methyl}-4-oxo-2-(5-phenylethynyl-thiophen-2-yl)-thiazolidin-3-yl]-benzamide (an FSH-R thiazolidinone antagonist) was prepared by processes described by R. A. Scheuerman et al. in U.S. Pat. No. 6,426,357 (Affymax).
The CHO FSH-R 6CRE-Luc cells (1D7 cells) were obtained from Affymax (Palo Alto, Calif.). These Chinese hamster ovary cells (CHO-K1) were engineered genetically to stably express the recombinant human FSH receptor gene and a luciferase reporter gene under the regulation of 6 copies of a cAMP response element. The cells were plated one day prior to treatment into 96-well white opaque plates at a density of 50,000 cells/100 μl/well in growth medium. On the day of treatment, the growth medium was removed from the wells by aspiration and 50 μl of fresh growth medium was added to each well. The cells were incubated at 37° C. in a humidified incubator with 5% CO2/95% air.
The treated cells were incubated for 4 hours at 37° C. in a humidified incubator with 5% CO2/95% air. At the end of the incubation period, luciferase activity was measured by chemiluminescence using a commercially available kit (LucScreen, Tropix, Inc., Bedford, Mass.) according to the manufacturer's specifications, except that Buffer 1 and Buffer 2 were mixed together in equal proportion prior to the addition of 100 μl of the combined reagents to each well. Chemiluminescence was detected using a luminometer (EG & G Berthold Microlumat LB 96 P, Wallac, Gaithersburg, Md.) with chemiluminescence measured for 1 sec/well. Background luminescence was measured for each well prior to the addition of the LucScreen reagent.
In the 96-well 2-dose format, each compound was tested in duplicate at each dose. […] One plate was used to test a maximum of 22 compounds.
The EC50 of purified human FSH alone was tested in triplicate with each test compound. The doses chosen to test each compound were extrapolated from the initial 2-dose screening process. Along with the test compounds, purified human FSH also was tested in a dose response (0.03, 0.1, 0.3, 1, 3, 10, and 30 ng/ml) for a positive control and quality control. One plate was used for 3 test compounds and the FSH positive control.
Luciferase activity is expressed as relative light units/sec/well. Luciferase activity in antagonist was compared to the appropriate negative and positive controls. For 2-dose testing, results are reported as luciferase activity and are expressed as percent inhibition of the response obtained from the EC50 of FSH.

Where only a bound is given, the exact number is not on record here.

As to `CC(O)c1ccccc1-c1ccc(C(=O)N2Cc3ccc(C(=O)NCc4cccnc4)n3Cc3ccccc32)cc1` (single isomer, unassigned; (+)) [Example 54], the IC50 in data set [1] is 150 nM; in data set [2] it was 0.317 µM.
Take `CC(O)c1ccccc1-c1ccc(C(=O)N2Cc3ccc(C(=O)NCc4cccnc4)n3Cc3ccccc32)cc1` (single isomer, unassigned; (-)) [Example 53]: the values for the IC50 in data set [1] and in data set [2] were 120 nM and 0.159 µM, respectively.
Taken in the same sequence, the figures for `Cc1cc(C(=O)N2Cc3ccc(C(=O)NCc4cccnc4)n3Cc3ccccc32)ccc1-c1ccccc1C(F)(F)F` [Example 5] were 1500 nM and 13.8 µM.
For the compound `COc1ccccc1-c1ccc(C(=O)N2Cc3ccc(C(=O)NCc4cccnc4Oc4ccccc4)n3Cc3ccccc32)cc1` [Example 7, 10-[(2′-METHOXY-1,1′-BIPHENYL-4-YL)CARBONYL]-N-[(2-PHENOXYPYRIDIN-3-YL)METHYL]-10,11-DIHYDRO-5H-PYRROLO[2,1-C][1,4]BENZODIAZEPINE-3-CARBOXAMIDE], the results for the half-inhibitory concentration (IC50) in data set [1] and in data set [2] were 700 nM and 5.4 µM, respectively.
The corresponding values for `O=C(NCc1cccnc1)c1ccc2n1Cc1ccccc1N(C(=O)c1ccc(-c3ccccc3)cc1)C2` [Example 13] are 700 nM and 2.8 µM.
`O=C(NCc1cccnc1)c1ccc2n1Cc1ccccc1N(C(=O)c1ccc(-c3ccccc3Cc3nnn[nH]3)cc1)C2` [Example 19] registered a melting point of 164 to 167 °C. Besides, the IC50 in data set [2] stood at 2.4 µM.
The corresponding values for `O=C(NCc1cccnc1)c1ccc2n1Cc1ccccc1N(C(=O)c1ccc(-c3ccccc3CN3CCCC3)cc1)C2` [Example 41] are 210 to 212 °C and 25.1 µM.
The corresponding values for `CC(C)(C)OC(=O)c1ccccc1-c1ccc(C(=O)N2Cc3ccc(C(=O)NCc4cccnc4)n3Cc3ccccc32)cc1` [Example 64] are 163 to 165 °C and > 30 µM.
Taken in the same sequence, the figures for `O=C(O)c1ccccc1-c1ccc(C(=O)N2Cc3ccc(C(=O)NCc4cccnc4)n3Cc3ccccc32)cc1` [Example 65, 4′-{[3-{[(PYRIDIN-3-YLMETHYL)AMINO]CARBONYL}-5H-PYRROLO[2,1-C][1,4]BENZODIAZEPIN-10(11H)-YL]CARBONYL}-1,1′-BIPHENYL-2-CARBOXYLIC ACID] were 189 to 191 °C and > 30 µM.
As for `CNC(=O)c1ccccc1-c1ccc(C(=O)N2Cc3ccc(C(=O)NCc4cccnc4)n3Cc3ccccc32)cc1` [Example 69], the melting point lay in the range of 221 to 224 °C. For the same compound, the half-maximal inhibitory concentration (IC50) in data set [2] amounted to 14.5 µM.
Turning to `O=C(NCc1cccnc1)c1ccc2n1Cc1ccccc1N(Cc1ccc(-c3ccccc3)cc1)C2` [Example 73], the melting point was 161 to 165 °C (dec.). Besides, in data set [2], the half-maximal inhibitory concentration (IC50) is 2 µM.
Taken in the same sequence, the figures for `O=C(NCc1cccnc1)c1ccc2n1Cc1ccccc1N(C(=O)c1cccc(F)c1)C2` [Example 78] were 101 °C and 18.1 µM.
Taken in the same sequence, the figures for `O=C(NCc1cccnc1)c1ccc2n1Cc1ccccc1N(C(=O)c1ccc(Cl)c(Cl)c1)C2` [Example 81] were 192 °C and 18.4 µM.
Taken in the same sequence, the figures for `COc1ccc(C(=O)N2Cc3ccc(C(=O)NCc4cccnc4)n3Cc3ccccc32)cc1` [Example 89] were 110 to 112 °C and 12.2 µM.
In the case of `O=C(NCc1cccnc1)c1ccc2n1Cc1ccccc1N(C(=O)c1ccc(F)cc1)C2` [Example 93], the melting point is 171 to 173 °C. For the same compound, in data set [2], the IC50 was > 30 µM.
The corresponding values for `CC(C)(C)OC(=O)NCc1ccc(C(=O)N2Cc3ccc(C(=O)NCc4cccnc4)n3Cc3ccccc32)cc1` [Example 103] are 171 °C and > 30 µM.
Taken in the same sequence, the figures for `O=C(NCc1cccnc1)c1ccc2n1Cc1ccccc1N(C(=O)c1ccc(-c3ccncc3)cc1)C2` [Example 110] were 119 to 124 °C and 7.65 µM.
For `O=C(NCc1cccnc1)c1ccc2n1Cc1ccccc1N(C(=O)c1ccc(-c3nccs3)cc1)C2` [Example 111], the melting point was 178 to 179 °C. Besides, in data set [2], the IC50 was 5.48 µM.
Taken in the same sequence, the figures for `O=C(NCc1cccnc1)c1ccc2n1Cc1ccccc1N(C(=O)COc1ccc(Cl)cc1)C2` [Example 138] were 169 to 171 °C and 15.8 µM.
As for `Cc1cc(Cl)ccc1OCC(=O)N1Cc2ccc(C(=O)NCc3cccnc3)n2Cc2ccccc21` [Example 139], the melting point turned out to be 168 °C. Besides, in data set [2], the half-maximal inhibitory concentration (IC50) was 9.86 µM.
In turn, `O=C(NCc1cccnc1)c1ccc2n1Cc1ccccc1N(C(=O)Cc1ccc(Cl)cc1)C2` [Example 142] had a melting point of 83 °C. Further, in data set [2], the half-maximal inhibitory concentration (IC50) was determined as 18.5 µM.

The values above are taken from US7678787B2, “Pyrrolobenzodiazepine pyridine carboxamides and derivatives as follicle-stimulating hormone receptor antagonists” (Wyeth, priority 2005, dated 2010).
